Data taken from publication PMC11436024, “E-Cyanoacrylamides and 5-Imino Pyrrolones against Trypanosoma cruzi: Activity and Induced Mechanisms of Cell Death” (Tropical Medicine and Infectious Disease, 2024).

What was measured:
[1] = tested on: epimastigote form of T. cruzi; assay: In vitro epimastigote activity assay (alamarBlue); format: cell-based, Trypanosoma cruzi strain Y; settings: for IC50: epimastigote form of T. cruzi, 72 h incubation at 26 °C, mean ± standard deviation; for SI (selectivity index, CC50/IC50): against the epimastigote form of T. cruzi, CC50 murine macrophages
Method: This assay is based on the use of alamarBlue. The alamarBlue reagent contains resazurin, which emits blue fluorescence under normal conditions. However, when the parasites are still alive and in contact with cell metabolism, the reagent is reduced to resorufin, which emits pink fluorescence.
In 96-well plates, serial dilutions of each compound were added with parasites at a concentration of 10^6 cells/mL in a final volume of 200 µL. Finally, 10% alamarBlue reagent was added, with 20 µL per well.
After 72 h of incubation at 26 °C, the plate was introduced into the plate reader and the fluorescence (570 nm excitation, 585 nm emission) of each well was determined using the EnSpire Multimode Plate Reader® (PerkinElmer, Thermo Fischer Scientific, Madrid, Spain). Finally, using a non-linear regression analysis in Graphpad Prism 9.0.0. the inhibitory concentration 50 (IC50) was calculated.
Inhibitory and cytotoxic concentrations (IC50, IC90, and CC50) were determined in duplicate on three different days using non-linear regression [Inhibitor] vs. response variable slope (four parameters) using non-linear regression analysis with 95% confidence, using GraphPad Prism 10.1.1 statistical software. The analysis was developed using Tukey’s test, considering significant values of p < 0.05. ANOVA analysis was also performed using GraphPad Prism 10.1.1.

[2] = tested on: Murine macrophages J774.A1; assay: Cytotoxicity assay (alamarBlue); format: cell-based; settings: for IC50 (cytotoxic concentration 50, CC50): 24 h
Method: Murine macrophages J774.A1 strain ATCC #TIB-67, acquired from American Type Culture Collection (ATTC, LGC Promochem, Barcelona, Spain), were cultured in DMEM medium and maintained at 37 °C and 5% CO2. This assay followed the same principle as the previous one, but in this case, macrophages were used instead of parasites to determine the toxicity of the compounds. A total of 50 μL with a concentration of 2 × 10^5 cells/mL was added to each well with serial dilutions of the compounds in 50 μL of RPMI medium. After this, 10% of alamarBlue™ reagent was added and the plate was incubated at 37 °C and 5% CO2 for 24 h. After this time, the fluorescence was read using the EnSpire Multimode Plate Reader® and the cytotoxic concentration 50 (IC50) was calculated. Inhibitory and cytotoxic concentrations (IC50, IC90, and CC50) were determined in duplicate on three different days using non-linear regression [Inhibitor] vs. response variable slope (four parameters) using non-linear regression analysis with 95% confidence, using GraphPad Prism 10.1.1 statistical software. The analysis was developed using Tukey’s test, considering significant values of p < 0.05. ANOVA analysis was also performed using GraphPad Prism 10.1.1.

[3] = tested on: amastigote form of T. cruzi; assay: In vitro amastigote activity assay (alamarBlue, intracellular parasites in macrophages); format: cell-based, Trypanosoma cruzi; settings: for IC50: Trypanosoma cruzi, Macrophage, amastigote form of T. cruzi in macrophages, 24 h with compound at 37 °C, mean ± standard deviation; for SI (selectivity index, CC50/IC50): against the amastigote form of T. cruzi, CC50 murine macrophages
Method: To perform the assay against the intracellular form of the parasite, the same colorimetric method based on the alamarBlue was developed. To produce the internalization of the parasites, an excess of epimastigote forms were added (10^5:10^4 parasites/macrophages in 100 µL of DMEM) to a 96-well plate for 24 h at 37 °C. Then, the wells were washed 3 times to eliminate the non-internalized parasites, and the serial dilutions of the compounds were added and dissolved in DMEM medium. After another incubation of 24 h at 37 °C, the drugs were eliminated and the cells were lysed with 0.05% SDS for 30 s. After adding LIT in a final volume of 200 µL and 10% of alamarBlue™ reagent, the plates were incubated for 96 h to promote the externalization of the parasites. Finally, the fluorescence was read using the EnSpire Multimode Plate Reader® and the inhibitory concentration 50 (IC50) was calculated. Inhibitory and cytotoxic concentrations (IC50, IC90, and CC50) were determined in duplicate on three different days using non-linear regression [Inhibitor] vs. response variable slope (four parameters) using non-linear regression analysis with 95% confidence, using GraphPad Prism 10.1.1 statistical software. The analysis was developed using Tukey’s test, considering significant values of p < 0.05. ANOVA analysis was also performed using GraphPad Prism 10.1.1.

[4] = tested on: L3 larvae of Culex pipiens; assay: Larvicidal (in vivo toxicity) assay against mosquito larvae
Method: The L3 larvae from Culex pipiens, used in the cytotoxicity assay, were cultured at the Laboratorio de Entomología Médica of the Instituto Universitario de Enfermedades Tropicales y Salud Pública de Canarias in Tenerife, Spain.
For this purpose, 3 mL of sterile water with food for 48 h was added to 24-well plates, following WHO guidelines of necessary nutrients. In each well, one L3 larva of Culex pipiens was added, together with different concentrations of the compounds to be tested (IC90 and two times IC90). In addition, negative controls, without treatment and with the maximum amount of DMSO added in the treatments, and positive controls, benznidazole as the reference treatment and triton, previously reported to be toxic to larvae, were added. All experiments were performed in duplicate and repeated on 3 different days, observing larval viability at different times (1, 3, 12, 24, and 48 h after the start of treatment).

[5] = tested on: Trypanosoma cruzi parasites; assay: Induction of cell death mechanisms (ATP, SYTOX Green, JC-1, Hoechst/PI, CellROX); format: cell-based; settings: parasites incubated 24 h with the IC90 of the compounds
Method: To observe these events, parasites were incubated for 24 h with the IC90 of the compounds. After that, the plate was centrifuged at 3000 rpm at 4 °C for 10 min to remove the supernatant. The pellet was then resuspended in buffer and the different kits were added following the manufacturer’s instructions. CellTiter-Glo® Luminescent Cell Viability Assay was used to determine the ATP levels of the parasitic cells. This kit contains luciferin upon contact with cell metabolism, oxidises to oxyluciferin and emitting luminescence. The procedure was as follows: after 24 h of incubation and centrifugation, the pellet was resuspended in 25 μL of buffer and mixed with 25 μL of CellTiter-Glo® in the dark, shaking for 2 min. Then, after 15 min of incubation at room temperature, the luminescence was read in the EnSpire Multimode Plate Reader® [20]. In PCD, there is an alteration in the permeability of the plasma membrane, but the cell structure is maintained. The SYTOX™ Green Stain (Thermo Fischer Scientific, Madrid, Spain) only penetrates cells with increased plasma permeability. Once inside the cell, it will bind to the DNA and emit green fluorescence. After incubation and centrifugation, the pellet was resuspended in 50 μL of buffer and the reagent was added at a concentration of 1 μM. […]

[6] = murine macrophages, mean ± standard deviation
[7] = 2IC90 (two times IC90) of compound, 1 h
[8] = 2IC90 (two times IC90) of compound, 3 h
[9] = 2IC90 (two times IC90) of compound, 12 h
[10] = 2IC90 (two times IC90) of compound, 24 h
[11] = 2IC90 (two times IC90) of compound, 48 h

Row | Compound | IC50 ([1]; Trypanosoma cruzi, 72 h) [µM] | SI (selectivity index, CC50/IC50) [1] | IC50 (cytotoxic concentration 50, CC50) [2, 6] [µM] | IC50 [3] [µM] | SI (selectivity index, CC50/IC50) [3] | larval viability [4, 7] | larval viability [4, 8] | larval viability [4, 9] | larval viability [4, 10] | larval viability [4, 11] | larval viability ([4]; IC90 of compound, 1 h) | larval viability ([4]; IC90 of compound, 3 h) | larval viability ([4]; IC90 of compound, 12 h) | larval viability ([4]; IC90 of compound, 24 h) | larval viability ([4]; IC90 of compound, 48 h) | further results
1 | N#C/C=C/C(=O)Nc1ccccc1 [A] | 18.7 ± 1.9 | 5.1 | 94.78 ± 23.11 | – | – | – | – | – | – | – | – | – | – | – | – | –
2 | N=C1C=CC(=O)N1c1ccccc1 [B] | < 10 | – | 118.07 ± 11.90 | 10.8 ± 2.11 | 10.9 | Alive | Alive | Alive | Alive | Alive | Alive | Alive | Alive | Alive | Alive | IC50 [1]: 6.91 ± 1.33 µM; type of cell death produced [5]: late phase of this type of cell death
3 | O=C(Cn1ccnc1[N+](=O)[O-])NCc1ccccc1 [Benznidazole, reference compound] | 6.92 ± 0.77 | 57.8 | 399.91 ± 1.40 | 2.67 ± 0.39 | 149.8 | Alive | Alive | Alive | Alive | Alive | Alive | Alive | Alive | Alive | Alive | –
4 | N#C/C=C/C(=O)NCc1ccccc1 [C] | 18.8 ± 2.03 | – | 208.01 ± 13.44 | 24.1 ± 6.22 | 8.6 | Alive | Alive | Alive | Alive | Alive | Alive | Alive | Alive | Alive | Alive | –
5 | N=C1C=CC(=O)N1Cc1ccccc1 [D] | 12.4 ± 1.49 | 6.9 | – | – | – | – | – | – | – | – | – | – | – | – | – | IC50 (cytotoxic concentration 50, CC50) ([2]; mouse): 85.32 ± 3.71 µM
6 | COc1ccc(CNC(=O)/C=C/C#N)cc1 [E] | > 100 | <3.2 | 319.61 ± 60.22 | – | – | – | – | – | – | – | – | – | – | – | – | –
7 | COc1ccc(CN2C(=N)C=CC2=O)cc1 [F] | – | 0.8 | – | – | – | – | – | – | – | – | – | – | – | – | – | IC50 (cytotoxic concentration 50, CC50) ([2]; mouse): 2.82 ± 1.39 µM
8 | COc1ccc(NC(=O)/C=C/C#N)cc1 [G] | 20.7 ± 2.66 | – | 266.62 ± 42.48 | 10.6 ± 3.05 | 25.2 | Alive | Alive | Alive | Alive | Alive | Alive | Alive | Alive | Alive | Alive | –
9 | COc1ccc(N2C(=N)C=CC2=O)cc1 [H] | – | 0.9 | 2.42 ± 1.58 | – | – | – | – | – | – | – | – | – | – | – | – | toxicity of Z isomer relative to E isomer (times more toxic) ([2]; G–H isomer pair, murine macrophages): 100
10 | Triton [reference compound] | – | – | – | – | – | – | – | – | – | – | – | – | – | – | – | larval viability ([4]; 0.01%, 1 h): Alive; larval viability ([4]; 0.01%, 3 h): Alive; larval viability ([4]; 0.01%, 12 h): Dead; larval viability ([4]; 0.01%, 24 h): Dead; larval viability ([4]; 0.01%, 48 h): Dead; larval viability ([4]; 0.5%, 1 h): Alive; larval viability ([4]; 0.5%, 3 h): Dead; larval viability ([4]; 0.5%, 12 h): Dead; larval viability ([4]; 0.5%, 24 h): Dead; larval viability ([4]; 0.5%, 48 h): Dead; larval viability ([4]; 1%, 1 h): Dead; larval viability ([4]; 1%, 3 h): Dead; larval viability ([4]; 1%, 12 h): Dead; larval viability ([4]; 1%, 24 h): Dead; larval viability ([4]; 1%, 48 h): Dead
